Reference: ChEMBL document CHEMBL5104094, “Chemistry, biosynthesis and biological activity of terpenoids and meroterpenoids in bacteria and fungi isolated from different marine habitats” (Eur J Med Chem, 2021)
≈ marks a conversion by molar mass, not a printed value.

Experiments:
[1] = tested on: Ceratobasidium cornigerum; assay: Antimicrobial activity against Ceratobasidium cornigerum assessed as microbial growth inhibition; format: functional
Edwardsiella tarda = assay: Antimicrobial activity against Edwardsiella tarda assessed as microbial growth inhibition; format: functional

## C=C(C)[C@H]1[C@H](OC(C)=O)C[C@H](C)[C@@]12CC=C(C)[C@@H](OC(=O)CCCCCCC/C=C\C/C=C\CCCCC)C2
[1]
  MIC: 0.5 mg/L (≈ 0.925 µM)
Edwardsiella tarda
  MIC: 0.25 mg/L (≈ 0.462 µM)
